Results as given in patent US8703791B2, “3-carboxypropyl-aminotetralin derivatives and related compounds as mu opioid receptor antagonists” (Theravance, Inc., priority 2007, dated 2014).
pKi: −log10 of the molar value. Where two headings read alike, the source gives them in different places.

Legend:
human mu opioid receptor [1] = biological target: T1, human mu opioid receptor (Homo sapiens, UniProt P35372); experiment: Human mu [35S]GTPγS nucleotide exchange assay in membranes from CHO-K1 cells; type: biochemical; conditions: read-out: intrinsic activity (IA), bound [35S]GTPγS relative to DAMGO (IA=100)
[2] = system: loperamide-induced delayed gastric emptying; experiment: Rat gastric emptying assay, reversal of loperamide-induced delayed gastric emptying; type: in vivo; conditions: administered orally, loperamide 1 mg/kg subcutaneous
human mu opioid receptor [3] = biological target: T1, human mu opioid receptor; experiment: Radioligand binding assay, [3H]-Diprenorphine displacement, human mu opioid receptor
[4] = expressed as a percentage of activation by DAMGO

T1 sequence (P35372 whole entry): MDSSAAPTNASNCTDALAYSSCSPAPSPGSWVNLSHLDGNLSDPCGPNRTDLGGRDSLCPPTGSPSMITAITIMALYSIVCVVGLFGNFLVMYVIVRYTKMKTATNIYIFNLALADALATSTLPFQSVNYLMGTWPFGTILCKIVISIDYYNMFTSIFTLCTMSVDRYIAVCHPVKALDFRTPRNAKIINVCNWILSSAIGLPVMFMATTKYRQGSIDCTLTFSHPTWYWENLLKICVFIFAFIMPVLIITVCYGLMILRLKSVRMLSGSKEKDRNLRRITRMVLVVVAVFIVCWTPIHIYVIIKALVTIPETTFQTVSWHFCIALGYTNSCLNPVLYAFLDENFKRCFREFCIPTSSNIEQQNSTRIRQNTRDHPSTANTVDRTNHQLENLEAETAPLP

Compound: CCC1(CC)c2cc(C(N)=O)ccc2CC(OC)[C@H]1NCC[C@@H](CC1CCCCC1)C(=O)OC (mixture of isomers) [Example 6, (R)-4-((2S,3SR)-7-Carbamoyl-1,1-diethyl-3-methoxy-1,2,3,4-tetrahydro-naphthalen-2-ylamino)-2-cyclohexylmethyl-butyric acid methyl ester]
- Emax (human mu opioid receptor [1]; [4]): 19%

Compound: CCC1(CC)c2cc(C(N)=O)ccc2C[C@H](OC)[C@H]1NCC[C@H](CC1CCCCC1)C(=O)O [Example 1, (S)-4-((2S,3S)-7-Carbamoyl-1,1-diethyl-3-methoxy-1,2,3,4-tetrahydro-naphthalen-2-ylamino)-2-cyclohexylmethyl-butyric acid]
- ID50, dose required for 50% reversal of the effects of loperamide [2]: 0.09 mg/kg

Compound: CCC1(CC)c2cc(C(N)=O)ccc2C[C@H](OC)[C@H]1NCC[C@H](CC1CCCCC1)C(=O)OC [Example 2, (S)-4-((2S,3S)-7-Carbamoyl-1,1-diethyl-3-methoxy-1,2,3,4-tetrahydro-naphthalen-2-ylamino)-2-cyclohexylmethyl-butyric acid methyl ester]
- Emax (human mu opioid receptor [1]; [4]): -5%

Compound: CCC1(CC)c2cc(C(N)=O)ccc2C[C@@H](OC)[C@@H]1NCC[C@@H](CC1CCCCC1)C(=O)OC [Example 5, (R)-4-((2R,3R)-7-Carbamoyl-1,1-diethyl-3-methoxy-1,2,3,4-tetrahydro-naphthalen-2-ylamino)-2-cyclohexylmethyl-butyric acid methyl ester]
- Emax (human mu opioid receptor [1]; [4]): 17%

Compound: CCC1(CC)c2cc(C(N)=O)ccc2C[C@H](OC)[C@H]1NCC[C@H](CC(C)C)C(=O)OC [Example 7-A, (S)-2-[2-((2S,3S)-7-Carbamoyl-1,1-diethyl-3-methoxy-1,2,3,4-tetrahydro-naphthalen-2-ylamino)-ethyl]-4-methyl-pentanoic acid methyl ester]
- Emax (human mu opioid receptor [1]): 8%

Compound: CCCCC[C@@H](CCN[C@@H]1[C@@H](OC)Cc2ccc(C(N)=O)cc2C1(CC)CC)C(=O)O [Example 9, (S)-2-[2-((2S,3S)-7-Carbamoyl-1,1-diethyl-3-methoxy-1,2,3,4-tetrahydro-naphthalen-2-ylamino)-ethyl]-heptanoic acid]
- Ki (human mu opioid receptor [3]; [3H]-Diprenorphine 0.5 nM, CHO-K1 membranes, read-out: pKi at the human mu opioid receptor (converted)): 0.631 nM
- ID50, dose required for 50% reversal of the effects of loperamide [2]: 0.10 mg/kg
- Emax (human mu opioid receptor [1]; [4]): -2%

Compound: CCC1(CC)c2cc(C(N)=O)ccc2C[C@H](OC)[C@H]1NCC[C@@H](CC1CCCCC1)C(=O)O [Example 10-G, (R)-4-((2S,3S)-7-Carbamoyl-1,1-diethyl-3-methoxy-1,2,3,4-tetrahydro-naphthalen-2-ylamino)-2-cyclohexylmethyl-butyric acid]
- pKi (human mu opioid receptor [3]): 9.60
- ID50, dose required for 50% reversal of the effects of loperamide [2]: 0.12 mg/kg
- Emax (human mu opioid receptor [1]): 7%

Compound: CCC1(CC)c2cc(O)ccc2C[C@H](OC)[C@H]1NCC[C@H](CC1CCCCC1)C(=O)O [Example 12, (S)-2-Cyclohexylmethyl-4-((2S,3S)-1,1-diethyl-7-hydroxy-3-methoxy-1,2,3,4-tetrahydro-naphthalen-2-ylamino)-butyric acid]
- pKi (human mu opioid receptor [3]): 9.70
- ID50, dose required for 50% reversal of the effects of loperamide [2]: 0.05 mg/kg
- Emax (human mu opioid receptor [1]): -5%
